Reference: ChEMBL document CHEMBL1158897, “New alkaloids from Cephalotaxus fortunei” (J Nat Prod, 2003)
≈ marks a conversion by molar mass, not a printed value.

system: KB; experiment: Cytotoxicity against human KB cells after 72 hrs by neutral red staining; type: functional, cell-based

Row | SMILES | IC50
1 | COC1=C[C@]23CCC[N@@+]2([O-])CCc2cc4c(cc2[C@@H]3[C@@H]1O)OCO4 | 14 µg/mL (≈ 42.2 µM)
2 | COC1=C[C@]23CCC[N@@+]2([O-])C[C@H](O)c2cc4c(cc2[C@@H]3[C@@H]1O)OCO4 | 31 µg/mL (≈ 89.2 µM)
3 | COC1=C[C@]23CCC[N@+]2([O-])CCc2cc4c(cc2[C@@H]3[C@@H]1O)OCO4 | 30 µg/mL (≈ 90.5 µM)
4 | COC1=C2c3cc4c(cc3CCN3CCC[C@]23CC1O)OCO4 (some centres undefined) [ISOCEPHALOTAXINE] | 15 µg/mL (≈ 47.6 µM)
